How the values were obtained:
Assay in all cases: biochemical
Assay type in all cases: biochemical
[1] = target: 363 human kinases (including Aurora A/B/C) (Homo sapiens, UniProt Q9NY57); details: STK32B/YANK2; for remaining activity at 0.1 µM: 100 nM; for remaining activity at 0.1 µM / remaining activity at 0.5 µM: read-out: % Enzyme Activity (relative to DMSO controls)
Source text: (§1) However, the Aurora A/B selectivity ratios derived from our in vitro and in vivo data can be compared to prioritize inhibitors.

[2] = target: 363 human kinases (including Aurora A/B/C) (Homo sapiens, UniProt P04049); details: RAF1; for remaining activity at 0.1 µM: 100 nM; for remaining activity at 0.1 µM / remaining activity at 0.5 µM: read-out: % Enzyme Activity (relative to DMSO controls)
Source text: as §1

[3] = target: T1, 363 human kinases (including Aurora A/B/C) (Homo sapiens, UniProt Q6P3R8); details: NEK5; for remaining activity at 0.1 µM: 100 nM; for remaining activity at 0.1 µM / remaining activity at 0.5 µM: read-out: % Enzyme Activity (relative to DMSO controls)
T1 sequence (Q6P3R8 1-708): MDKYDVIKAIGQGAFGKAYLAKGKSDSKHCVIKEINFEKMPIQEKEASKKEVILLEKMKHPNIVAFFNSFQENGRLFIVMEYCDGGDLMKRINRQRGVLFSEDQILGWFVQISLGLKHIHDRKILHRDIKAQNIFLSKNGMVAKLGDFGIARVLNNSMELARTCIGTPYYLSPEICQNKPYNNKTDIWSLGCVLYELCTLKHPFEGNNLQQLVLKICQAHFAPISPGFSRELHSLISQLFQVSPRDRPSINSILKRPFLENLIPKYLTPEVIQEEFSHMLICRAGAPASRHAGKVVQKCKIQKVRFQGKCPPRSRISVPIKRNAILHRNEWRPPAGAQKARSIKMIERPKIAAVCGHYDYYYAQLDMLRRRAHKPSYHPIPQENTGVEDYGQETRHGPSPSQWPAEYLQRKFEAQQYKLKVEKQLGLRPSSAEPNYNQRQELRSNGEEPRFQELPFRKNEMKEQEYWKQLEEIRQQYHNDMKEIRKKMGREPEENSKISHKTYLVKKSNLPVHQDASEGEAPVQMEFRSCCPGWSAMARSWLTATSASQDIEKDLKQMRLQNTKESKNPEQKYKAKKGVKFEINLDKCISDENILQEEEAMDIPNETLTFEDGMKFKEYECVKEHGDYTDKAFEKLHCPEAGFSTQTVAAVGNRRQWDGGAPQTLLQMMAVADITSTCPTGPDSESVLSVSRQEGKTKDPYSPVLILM
Source text: as §1

[4] = target: 363 human kinases (including Aurora A/B/C) (Homo sapiens, UniProt P42684); details: ABL2/ARG, [ATP] 30 µM; for remaining activity at 0.1 µM: 100 nM; for remaining activity at 0.1 µM / remaining activity at 0.5 µM: read-out: % Enzyme Activity (relative to DMSO controls)
Source text: as §1

[5] = target: T2, 363 human kinases (including Aurora A/B/C) (Homo sapiens, UniProt Q9NRM7); details: LATS2; for remaining activity at 0.1 µM: 100 nM; for remaining activity at 0.1 µM / remaining activity at 0.5 µM: read-out: % Enzyme Activity (relative to DMSO controls)
T2 sequence (Q9NRM7 1-1088): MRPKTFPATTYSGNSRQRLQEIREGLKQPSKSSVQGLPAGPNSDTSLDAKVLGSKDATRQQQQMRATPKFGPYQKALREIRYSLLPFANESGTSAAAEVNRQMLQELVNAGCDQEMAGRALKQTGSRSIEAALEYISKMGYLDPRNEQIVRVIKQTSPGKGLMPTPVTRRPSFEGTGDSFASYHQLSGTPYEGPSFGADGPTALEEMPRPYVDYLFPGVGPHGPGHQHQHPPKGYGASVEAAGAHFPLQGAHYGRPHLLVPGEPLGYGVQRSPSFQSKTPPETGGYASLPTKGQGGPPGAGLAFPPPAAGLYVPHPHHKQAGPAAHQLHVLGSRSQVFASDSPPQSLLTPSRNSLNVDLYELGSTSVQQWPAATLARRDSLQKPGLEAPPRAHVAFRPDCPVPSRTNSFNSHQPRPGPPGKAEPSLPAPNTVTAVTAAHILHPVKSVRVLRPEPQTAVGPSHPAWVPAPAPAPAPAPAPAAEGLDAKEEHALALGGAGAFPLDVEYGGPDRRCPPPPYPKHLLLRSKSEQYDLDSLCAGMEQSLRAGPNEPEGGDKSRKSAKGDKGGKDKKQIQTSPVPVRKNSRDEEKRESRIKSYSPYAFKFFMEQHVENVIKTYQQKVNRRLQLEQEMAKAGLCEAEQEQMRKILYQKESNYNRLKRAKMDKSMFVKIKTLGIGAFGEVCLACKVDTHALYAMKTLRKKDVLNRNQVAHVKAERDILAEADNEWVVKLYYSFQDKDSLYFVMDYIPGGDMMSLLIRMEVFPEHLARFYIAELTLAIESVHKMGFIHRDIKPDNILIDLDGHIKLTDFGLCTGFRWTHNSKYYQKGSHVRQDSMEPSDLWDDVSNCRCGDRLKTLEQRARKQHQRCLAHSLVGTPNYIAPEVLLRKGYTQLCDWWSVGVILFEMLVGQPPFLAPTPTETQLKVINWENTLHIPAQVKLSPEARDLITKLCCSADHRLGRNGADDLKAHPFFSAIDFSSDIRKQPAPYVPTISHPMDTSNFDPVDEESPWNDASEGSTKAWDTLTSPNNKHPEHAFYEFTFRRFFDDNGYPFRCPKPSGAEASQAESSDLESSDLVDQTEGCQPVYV
Source text: as §1

[6] = target: 363 human kinases (including Aurora A/B/C) (Homo sapiens, UniProt P21802); details: FGFR2, [ATP] 5 µM; for remaining activity at 0.1 µM: 100 nM; for remaining activity at 0.1 µM / remaining activity at 0.5 µM: read-out: % Enzyme Activity (relative to DMSO controls)
Sequence of 363 human kinases (including Aurora A/B/C) (Homo sapiens, UniProt P21802) (P21802 22-821): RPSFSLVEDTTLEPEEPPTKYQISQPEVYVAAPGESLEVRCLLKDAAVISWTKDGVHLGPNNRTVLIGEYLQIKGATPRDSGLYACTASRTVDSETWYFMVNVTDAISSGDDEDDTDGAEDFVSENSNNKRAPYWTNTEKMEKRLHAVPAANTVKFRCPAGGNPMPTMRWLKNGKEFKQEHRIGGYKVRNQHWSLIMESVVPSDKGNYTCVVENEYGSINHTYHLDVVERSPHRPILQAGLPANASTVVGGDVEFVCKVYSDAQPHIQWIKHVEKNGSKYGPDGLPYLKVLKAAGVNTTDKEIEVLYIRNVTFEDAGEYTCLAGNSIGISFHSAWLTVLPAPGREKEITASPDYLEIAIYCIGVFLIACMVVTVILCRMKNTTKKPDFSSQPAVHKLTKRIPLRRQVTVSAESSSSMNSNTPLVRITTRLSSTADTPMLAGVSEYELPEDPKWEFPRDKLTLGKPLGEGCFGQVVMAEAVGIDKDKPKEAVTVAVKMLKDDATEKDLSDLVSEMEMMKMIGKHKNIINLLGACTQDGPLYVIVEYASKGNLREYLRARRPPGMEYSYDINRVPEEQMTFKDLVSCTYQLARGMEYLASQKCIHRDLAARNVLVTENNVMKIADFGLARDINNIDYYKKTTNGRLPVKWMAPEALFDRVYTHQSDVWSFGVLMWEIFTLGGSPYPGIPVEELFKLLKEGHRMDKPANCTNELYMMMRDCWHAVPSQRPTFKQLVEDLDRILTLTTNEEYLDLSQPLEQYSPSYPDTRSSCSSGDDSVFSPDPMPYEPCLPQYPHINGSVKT
Source text: as §1

Sequence of 363 human kinases (including Aurora A/B/C) (Homo sapiens, UniProt Q9NY57) (Q9NY57 whole entry): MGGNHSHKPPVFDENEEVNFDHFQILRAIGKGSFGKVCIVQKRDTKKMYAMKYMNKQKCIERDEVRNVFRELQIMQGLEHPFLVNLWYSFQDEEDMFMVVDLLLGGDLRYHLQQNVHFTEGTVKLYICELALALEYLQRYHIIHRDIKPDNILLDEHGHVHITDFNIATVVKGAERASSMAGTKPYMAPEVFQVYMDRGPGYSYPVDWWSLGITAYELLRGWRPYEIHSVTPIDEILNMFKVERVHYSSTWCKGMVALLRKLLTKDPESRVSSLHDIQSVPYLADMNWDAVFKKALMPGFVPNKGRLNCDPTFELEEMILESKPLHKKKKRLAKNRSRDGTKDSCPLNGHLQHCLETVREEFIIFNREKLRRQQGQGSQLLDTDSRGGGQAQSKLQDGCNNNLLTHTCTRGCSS
Sequence of 363 human kinases (including Aurora A/B/C) (Homo sapiens, UniProt P42684) (P42684 whole entry): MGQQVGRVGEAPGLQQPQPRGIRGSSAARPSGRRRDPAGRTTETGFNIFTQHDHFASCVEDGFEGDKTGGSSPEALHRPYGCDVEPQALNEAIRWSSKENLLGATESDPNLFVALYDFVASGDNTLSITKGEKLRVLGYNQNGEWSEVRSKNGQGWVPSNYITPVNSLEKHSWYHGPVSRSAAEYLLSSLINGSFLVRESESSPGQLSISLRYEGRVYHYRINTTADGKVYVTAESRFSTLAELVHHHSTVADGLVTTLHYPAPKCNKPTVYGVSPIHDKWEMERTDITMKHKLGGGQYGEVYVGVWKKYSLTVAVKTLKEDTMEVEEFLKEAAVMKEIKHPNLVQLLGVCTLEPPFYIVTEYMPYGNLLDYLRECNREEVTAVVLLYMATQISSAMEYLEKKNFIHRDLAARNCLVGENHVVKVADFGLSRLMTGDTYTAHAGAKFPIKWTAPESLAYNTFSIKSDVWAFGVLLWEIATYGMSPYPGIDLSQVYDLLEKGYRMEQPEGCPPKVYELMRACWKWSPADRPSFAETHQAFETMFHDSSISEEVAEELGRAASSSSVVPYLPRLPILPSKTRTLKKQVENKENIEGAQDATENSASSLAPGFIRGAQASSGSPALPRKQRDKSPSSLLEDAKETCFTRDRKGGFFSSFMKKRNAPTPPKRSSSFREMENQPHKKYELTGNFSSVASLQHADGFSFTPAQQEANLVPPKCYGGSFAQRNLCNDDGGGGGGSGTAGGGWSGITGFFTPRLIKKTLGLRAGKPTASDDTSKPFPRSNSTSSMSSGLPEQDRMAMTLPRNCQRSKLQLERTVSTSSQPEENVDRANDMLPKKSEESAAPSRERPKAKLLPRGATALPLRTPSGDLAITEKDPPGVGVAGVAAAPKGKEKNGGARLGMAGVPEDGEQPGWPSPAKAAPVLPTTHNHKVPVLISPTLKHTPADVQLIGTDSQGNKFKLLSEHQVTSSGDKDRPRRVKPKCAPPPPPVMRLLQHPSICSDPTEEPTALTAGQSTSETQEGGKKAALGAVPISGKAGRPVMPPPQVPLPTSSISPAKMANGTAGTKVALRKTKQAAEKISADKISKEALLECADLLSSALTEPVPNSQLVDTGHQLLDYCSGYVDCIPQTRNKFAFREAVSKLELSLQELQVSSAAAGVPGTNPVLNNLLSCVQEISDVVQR
Sequence of 363 human kinases (including Aurora A/B/C) (Homo sapiens, UniProt P04049) (P04049 whole entry): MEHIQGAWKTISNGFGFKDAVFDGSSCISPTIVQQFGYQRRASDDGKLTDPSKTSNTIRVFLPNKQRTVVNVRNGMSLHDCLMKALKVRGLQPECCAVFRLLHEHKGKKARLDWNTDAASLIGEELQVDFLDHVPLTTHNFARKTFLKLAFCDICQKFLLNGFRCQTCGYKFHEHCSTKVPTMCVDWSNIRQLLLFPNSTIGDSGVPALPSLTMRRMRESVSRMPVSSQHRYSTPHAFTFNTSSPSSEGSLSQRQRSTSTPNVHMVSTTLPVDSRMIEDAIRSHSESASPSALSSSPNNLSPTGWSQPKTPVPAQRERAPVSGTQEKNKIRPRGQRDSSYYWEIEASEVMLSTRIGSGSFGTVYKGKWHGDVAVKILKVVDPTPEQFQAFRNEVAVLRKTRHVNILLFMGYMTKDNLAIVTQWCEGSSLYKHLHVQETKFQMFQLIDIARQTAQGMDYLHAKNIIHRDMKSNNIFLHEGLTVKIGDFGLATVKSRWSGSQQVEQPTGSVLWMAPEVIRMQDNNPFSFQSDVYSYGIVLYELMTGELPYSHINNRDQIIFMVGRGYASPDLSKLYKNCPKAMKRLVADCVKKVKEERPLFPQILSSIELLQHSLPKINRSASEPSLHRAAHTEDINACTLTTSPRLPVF

| SMILES | remaining activity at 0.1 µM [1] [%] | remaining activity at 0.5 µM ([1]; 500 nM) [%] | remaining activity at 0.1 µM [2] [%] | remaining activity at 0.5 µM ([2]; 500 nM) [%] | remaining activity at 0.1 µM [3] [%] | remaining activity at 0.5 µM ([3]; 500 nM) [%] | remaining activity at 0.1 µM [4] [%] | remaining activity at 0.5 µM ([4]; 500 nM) [%] | remaining activity at 0.1 µM [5] [%] | remaining activity at 0.5 µM ([5]; 500 nM) [%] | remaining activity at 0.1 µM [6] [%] | remaining activity at 0.5 µM ([6]; 500 nM) [%] | % Enzyme Activity (relative to DMSO controls) ([1]; 500 nM) [%] | % Enzyme Activity (relative to DMSO controls) ([2]; 500 nM) [%] | % Enzyme Activity (relative to DMSO controls) ([3]; 500 nM) [%] | % Enzyme Activity (relative to DMSO controls) ([4]; 500 nM) [%] | % Enzyme Activity (relative to DMSO controls) ([5]; 500 nM) [%] | % Enzyme Activity (relative to DMSO controls) ([6]; 500 nM) [%] |
| --- | --- | --- | --- | --- | --- | --- | --- | --- | --- | --- | --- | --- | --- | --- | --- | --- | --- | --- |
| O=C(O)[C@]1(Cc2cccc(Nc3nccs3)n2)CC[C@@H](Oc2cccc(Cl)c2F)CC1 [MK-5108] | 95.8 | 95.7 | 97.7 | 94.8 | 153 | 104 | 12.2 | 2.32 | 96.8 | 81.6 | 39.7 | 11.2 |  |  |  |  |  |  |
| O=C(c1cccc(Cl)c1F)N1CCN(Cc2cccc(Nc3nccs3)n2)CC1 [MK-8745] |  | 97.9 |  | 95.6 |  | 130 |  | 85.8 |  | 81.8 |  | 92 | 95.67 | 93.98 | 128.29 | 85.19 | 81.73 | 90.67 |
| CCn1cc(-c2ccnc3[nH]c(-c4cccc(CN(C)C)c4)cc23)c(-c2ccc(NC(=O)N(C)C)cc2)n1 [GSK1070916] | 93.6 |  | 100 |  | 59.1 |  | 94.2 |  | 90.6 |  | 43.3 |  |  |  |  |  |  |  |

— publication PMC4685510, “A Cell Biologist’s Field Guide to Aurora Kinase Inhibitors” (Frontiers in Oncology, 2015)
